Experiments:
Wer 127 = assay: MTT assay Wer 127; type: cell-based; conditions: Table 7
Method: (§1) MTT assays. […] Each experiment was performed at least in triplicate.

Y79 = assay: MTT assay Y79; type: cell-based; conditions: Table 7
Method: as §1

HT-3 = assay: MTT assay HT-3; type: cell-based, human; conditions: Table 7; HT-3
Method: MTT assays. […] Viable cells (2500 cells per well) were plated in each well in 96-well plates. After an overnight incubation, cells were treated with and without relevant drugs alone and in combination, respectively, at various concentrations and incubated for 72 hours. MTT, a colorimetric substrate, was added to a final concentration of 0.4 mg/ml to each well. Cells in 96-well plates were further incubated in a 5% CO2 incubator at 37° C. for 4 hours, and then the medium was aspirated. The MTT metabolic product formazan was solubilized by adding 200 ul of DMSO to each well. Absorbance in the relevant wells was measured at 570 nm using an Ultra Microplate Reader (Bio-Tek Instruments). Each experiment was performed at least in triplicate. IC50/EC50 values were calculated from a series of drug dose ranges for each analyzed compound, using GraphPad Prism 6 (GraphPad Software, Inc., La Jolla, CA).
The inhibition of cell growth and viability in various cancer cell types were tested using MTT assay for references.

HeLa = type: cell-based, human
HCT116 = type: cell-based, human
A549 = type: cell-based, human
HepG2 = type: cell-based, human
[1] = test system: HT-3 retinoblastoma xenograft tumors; conditions: oral, multiple doses, weekly×4
Method: Human HT-3 retinoblastoma xenograft tumors were initially established by subcutaneously injection of 2-5×10^6 HT-3 cells in a volume of 100-200 μL medium. Mouse models of HT-3 xenografts were set up by subcutaneously inoculating 30-40 mg tumor tissue on the flank of SCID mice. Treatment with individual compounds was initiated 7-14 days after the transplanted tumors reached 100-200 mm^3 (designated day 0). […] The individual compounds were formulated in an organic solvent-free with HPPCD as drug carriers in 2% HPMC (hydroxypropyl methylcellulose) and 1% PG (propylene glycol) in saline (a thick aqueous suspension) for oral administration. The vehicle is the same thick aqueous suspension without drug. A. FL7s-3-treated xenograft tumor curve profile (left panel) and body weight profile (right panel) over the experimental period. B. FL7s-4-treated xenograft tumor curve profile (left panel) and body weight profile (right panel) over the experimental period. C. FL7s-7-treated xenograft tumor curve profile (left panel) and body weight profile (right panel) over the experimental period.
(§2) Human xenograft tumors used. In this invention disclose, human SW620 (colorectal), HT29 (colorectal) and HT-3 (retinoblastoma) cancer cell line-established xenograft tumors were used. Human tumor cell line-derived xenograft tumors are initially established by subcutaneously injecting 2-5×10^6 cultured cancer cells in a volume of 100-150 p L medium into the flank area of severe combined immunodeficiency (SCID) mice. The derived tumors are then passed a couple of generations in mice by transplanting 30-50 mg non-necrotic tumor mass via a trocar for experiments or maintenance. […] PDX tumors were originally established on severe Combined Immunodeficiency (SCID) mice from pancreatic and colorectal cancer patient tumor tissues obtained from metastatic sites of the disease in the clinic.
To these three novel compounds, we performed in vivo animal model studies to evaluate their antitumor activity and toxicity using the HT-3 retinoblastoma xenograft tumor models. In this experiment, we still took advantage of the newly developed formulation for oral administration of compounds.

CRC PDX27454 tumors = conditions: mouse, in vivo
Method: Colorectal cancer (CRC) patient-derived xenograft (PDX) models were used to evaluate their in vivo antitumor activity. […] Treatments were administered weekly for four weeks on days 0, 7, 14 and 21 and tumor volumes and individual body weights were monitored.
as §2
Specifically, PDX tumors were originally established on severe Combined Immunodeficiency (SCID) mice from pancreatic and colorectal cancer patient tumor tissues obtained from metastatic sites of the disease in the clinic. […] The vehicle is the same think aqueous suspension without drug. Experimental SCID mice were subcutaneously implanted with 30-40 mg individual PDX tumors (isolated from maintenance mice) at the flank area for PDX27454 of SCID mice. Treatment with vehicle or a drug of 7Q-series (2) was initiated 7-14 days after the transplanted tumors reached 100-200 mm^3 (designated day 0). The animal model of PDX tumors was orally treated weekly for 4 times (one cycle/course, as shown with black arrows) or only one time drug administration.

## CC[C@@]1(O)C(=O)OCc2c1cc1n(c2=O)Cc2c-1nc1cc3c(cc1c2CCc1ccc(F)cc1)OCO3 [FL7s-4]
Wer 127
  IC50/EC50: 49.46 nM
Y79
  IC50/EC50: 0.62 nM
HT-3
  IC50/EC50: 4.7 nM

## CC[C@@]1(O)C(=O)OCc2c1cc1n(c2=O)Cc2c-1nc1cc3c(cc1c2-c1ccc(OC)c(F)c1)OCO3 [Compound 7g]
HeLa
  IC50: 24.3 ± 4.4 nM
HCT116
  IC50: 43.2 ± 15.8 nM
A549
  IC50: 70.2 ± 9.6 nM
HepG2
  IC50: 172 ± 5.3 nM

## CC[C@@]1(O)C(=O)OCc2c1cc1n(c2=O)Cc2c-1nc1cc3c(cc1c2-c1ccc(F)c(C)c1)OCO3 [Compound 7e]
HeLa
  IC50: 36.6 ± 4.5 nM
HCT116
  IC50: 25.5 ± 3.2 nM
A549
  IC50: 29.4 ± 4.1 nM
HepG2
  IC50: 36.7 ± 2.6 nM

## CC[C@@]1(O)C(=O)OCc2c1cc1n(c2=O)Cc2c-1nc1cc3c(cc1c2CCc1cccc(F)c1)OCO3 [FL7s-7]
Wer 127
  IC50/EC50: 4.76 nM
[1]
  overall antitumor activity versus toxicity ranking: top two candidates
Y79
  IC50/EC50: 0.29 nM
HT-3
  IC50/EC50: 2.22 nM

## CC[C@@]1(O)C(=O)OCc2c1cc1n(c2=O)Cc2c-1nc1cc3c(cc1c2/C=C/C=C/c1ccccc1)OCO3 [FL7s-1]
Wer 127
  IC50/EC50: >500 nM
Y79
  IC50/EC50: 4.16 nM
HT-3
  IC50/EC50: 11.9 nM

## CC[C@@]1(O)C(=O)OCc2c1cc1n(c2=O)Cc2c-1nc1cc3c(cc1c2-c1ccc(F)c(F)c1)OCO3 [Compound 7n]
HeLa
  IC50: 39.7 ± 2.3 nM
HCT116
  IC50: 48.8 ± 3.2 nM
A549
  IC50: 9 nM
HepG2
  IC50: 49.9 ± 3.5 nM

## CC[C@@]1(O)C(=O)OCc2c1cc1n(c2=O)Cc2c-1nc1cc3c(cc1c2-c1cccc(C(F)(F)F)c1)OCO3 [Compound 7Q35]
CRC PDX27454 tumors
  antitumor activity, 7Q-series (2): much higher antitumor activity than the other compounds in this 7Q-series (2)
  effect of oral instead of i.p. administration on antitumor efficacy: decreases 7Q35 antitumor efficacy

## CCOc1ccc(-c2c3c(nc4cc5c(cc24)OCO5)-c2cc4c(c(=O)n2C3)COC(=O)[C@]4(O)CC)cc1F [Compound 7j]
HeLa
  IC50: 42.2 ± 3.6 nM
HCT116
  IC50: 399 ± 19.8 nM
A549
  IC50: 352 ± 10.3 nM
HepG2
  IC50: 206 ± 38.2 nM

## CC[C@@]1(O)C(=O)OCc2c1cc1n(c2=O)Cc2c-1nc1cc3c(cc1c2-c1ccc(C)c(F)c1)OCO3 [Compound 7d]
HeLa
  IC50: 22.1 ± 7.3 nM
HCT116
  IC50: 50.3 ± 14.6 nM
A549
  IC50: 48.2 ± 7.9 nM
HepG2
  IC50: 36.9 ± 1.2 nM

## CCC1(O)C(=O)OCc2c1cc1n(c2=O)Cc2c-1nc1cc3c(cc1c2C=CC=Cc1ccc(OC)cc1)OCO3 (centres unmarked) [FL7s-2]
Wer 127
  IC50/EC50: >500 nM
Y79
  IC50/EC50: 41.48 nM
HT-3
  IC50/EC50: 113.2 nM

## CC[C@@]1(O)C(=O)OCc2c1cc1n(c2=O)Cc2c-1nc1cc3c(cc1c2-c1ccc(OC(F)(F)F)cc1)OCO3 [Compound 7m]
HeLa
  IC50: 398 ± 2.6 nM
HCT116
  IC50: 196 ± 19.1 nM
A549
  IC50: 87.3 ± 14.4 nM
HepG2
  IC50: 229 ± 5.8 nM

## CC[C@@]1(O)C(=O)OCc2c1cc1n(c2=O)Cc2c-1nc1cc3c(cc1c2C=Cc1ccccc1)OCO3 [FL7-5, 20 (S)-7-cinnamenyl-10,11-methylenedioxy-camptothecin]
Wer 127
  IC50/EC50: 5.13 nM
Y79
  IC50/EC50: 2.51 nM
HT-3
  IC50/EC50: 5.89 nM

## CC[C@@]1(O)C(=O)OCc2c1cc1n(c2=O)Cc2c-1nc1cc3c(cc1c2-c1ccc(F)c(OC)c1)OCO3 [Compound 7Q32]
CRC PDX27454 tumors
  antitumor activity, 7Q-series (2): much higher antitumor activity than the other compounds in this 7Q-series (2)
  toxicity on i.p. versus oral administration: increases 7Q32 toxicity to animals in comparison with oral administration

## CC[C@@]1(O)C(=O)OCc2c1cc1n(c2=O)Cc2c-1nc1cc3c(cc1c2CCCCc1ccc(OC)cc1)OCO3 [FL7s-6]
Wer 127
  IC50/EC50: 6.48 nM
Y79
  IC50/EC50: 1.52 nM
HT-3
  IC50/EC50: 7.7 nM

## CC[C@@]1(O)C(=O)OCc2c1cc1n(c2=O)Cc2c-1nc1cc3c(cc1c2-c1cc(F)cc(F)c1)OCO3 [Compound 7c]
HeLa
  IC50: 35.6 ± 5.8 nM
CRC PDX27454 tumors
  antitumor efficacy: high antitumor efficacy
CRC PDX27454 tumors; ip
  mouse body weights: stable mouse body weights
HCT116
  IC50: 48 ± 4.4 nM
A549
  IC50: 49.5 ± 10 nM
HepG2
  IC50: 41.4 ± 5.9 nM

## CC[C@@]1(O)C(=O)OCc2c1cc1n(c2=O)Cc2c-1nc1cc3c(cc1c2-c1cccc(OC(F)(F)F)c1)OCO3 [Compound 7Q36]
CRC PDX27454 tumors
  antitumor activity, 7Q-series (2): much higher antitumor activity than the other compounds in this 7Q-series (2)
  loss of antitumor efficacy on oral administration: > 80%

## CC[C@@]1(O)C(=O)OCc2c1cc1n(c2=O)Cc2c-1nc1cc3c(cc1c2-c1cc(F)cc(OC)c1)OCO3 [Compound 7i]
HeLa
  IC50: 124 ± 12.1 nM
HCT116
  IC50: 66.9 ± 6.5 nM
A549
  IC50: 15.5 ± 2.2 nM
HepG2
  IC50: 48.5 ± 2.3 nM

## CC[C@@]1(O)C(=O)OCc2c1cc1n(c2=O)Cc2c-1nc1cc3c(cc1c2-c1ccc(OC)c(F)c1)OCO3 [Compound 7Q31]
CRC PDX27454 tumors
  antitumor activity, 7Q-series (2): much higher antitumor activity than the other compounds in this 7Q-series (2)
  effect of oral instead of i.p. administration on antitumor efficacy: decreases 7Q28 antitumor efficacy

## CC[C@@]1(O)C(=O)OCc2c1cc1n(c2=O)Cc2c-1nc1cc3c(cc1c2CCCCc1ccccc1)OCO3 [FL7s-5]
Wer 127
  IC50/EC50: 381.2 nM
Y79
  IC50/EC50: 1.11 nM
HT-3
  IC50/EC50: 3.58 nM

## CC[C@@]1(O)C(=O)OCc2c1cc1n(c2=O)Cc2c-1nc1cc3c(cc1c2-c1cccc(OC(F)(F)F)c1)OCO3 [Compound 71]
HeLa
  IC50: 12.8 ± 7.4 nM
CRC PDX27454 tumors
  antitumor efficacy: no more effective than FL118 in vivo
HCT116
  IC50: 14.6 ± 6.7 nM
A549
  IC50: 26.4 ± 7.5 nM
HepG2
  IC50: 16.8 ± 2.3 nM

## CC[C@@]1(O)C(=O)OCc2c1cc1n(c2=O)Cc2c-1nc1cc3c(cc1c2CCc1ccccc1)OCO3 [FL7-14, 20 (S)-7-phenethyl-10,11-methylenedioxy-camptothecin]
Wer 127
  IC50/EC50: 4.1 nM
Y79
  IC50/EC50: 8.39 nM
HT-3
  IC50/EC50: 36.9 nM

## CC[C@@]1(O)C(=O)OCc2c1cc1n(c2=O)Cc2c-1nc1cc3c(cc1c2CCc1ccccc1F)OCO3 [FL7s-8]
Wer 127
  IC50/EC50: 28.99 nM
Y79
  IC50/EC50: 1.56 nM
HT-3
  IC50/EC50: 4.88 nM

## CC[C@@]1(O)C(=O)OCc2c1cc1n(c2=O)Cc2c-1nc1cc3c(cc1c2-c1cccc(C(F)(F)F)c1)OCO3 [Compound 7k]
HeLa
  IC50: 20.2 ± 3 nM
HCT116
  IC50: 73.6 ± 7.1 nM
A549
  IC50: 82.9 ± 5.6 nM
HepG2
  IC50: 35 ± 6.6 nM

## CC[C@@]1(O)C(=O)OCc2c1cc1n(c2=O)Cc2c-1nc1cc3c(cc1c2-c1cccc(F)c1)OCO3 [Compound 7a]
HeLa
  IC50: 34.7 ± 6.5 nM
HCT116
  IC50: 150 ± 2.5 nM
A549
  IC50: 40 ± 0.3 nM
HepG2
  IC50: 155 ± 35.1 nM

## CC[C@@]1(O)C(=O)OCc2c1cc1n(c2=O)Cc2c-1nc1cc3c(cc1c2CCc1cc(F)c(F)c(F)c1)OCO3 [FL7s-10]
Wer 127
  IC50/EC50: 12.26 nM
Y79
  IC50/EC50: 1.15 nM
HT-3
  IC50/EC50: 3.44 nM

## CC[C@@]1(O)C(=O)OCc2c1cc1n(c2=O)Cc2c-1nc1cc3c(cc1c2CCc1ccc(F)c(F)c1)OCO3 [FL7s-9]
Wer 127
  IC50/EC50: 1.86 nM
Y79
  IC50/EC50: 1 nM
HT-3
  IC50/EC50: 3.42 nM

## CC[C@@]1(O)C(=O)OCc2c1cc1n(c2=O)Cc2c-1nc1cc3c(cc1c2-c1ccc(C)c(F)c1)OCO3 [Compound 7Q28]
CRC PDX27454 tumors
  antitumor activity, 7Q-series (2): much higher antitumor activity than the other compounds in this 7Q-series (2)
  effect of oral instead of i.p. administration on antitumor efficacy: decreases 7Q28 antitumor efficacy

## CC[C@@]1(O)C(=O)OCc2c1cc1n(c2=O)Cc2c-1nc1cc3c(cc1c2-c1cc(C)cc(F)c1)OCO3 [Compound 7f]
HeLa
  IC50: 56.5 ± 2.8 nM
HCT116
  IC50: 41.4 ± 5.9 nM
A549
  IC50: 30.6 ± 3.8 nM
HepG2
  IC50: 56 ± 0.3 nM

From patent US20250092058A1 (priority 2018, published 2025)
